Emax data for 37 compounds are collected here from patent EP2818471A1, “Nitrogen bicyclic compounds as inhibitors for Scyl1 and Grk5” (Max-Planck-Gesellschaft zur Förderung der Wissenschaften …, priority 2013, dated 2014).

The structures appear in SMILES notation.

The test deals with beta-TC6 cells. Kind of test: Insulin HTRF assay, relative activity Ar normalized to sunitinib. It is filed as cell-based. The following applies: Mus musculus, normalized to positive control sunitinib (5 µM = 100%), Table 10. An excerpt:
For further screening of compounds derived from compounds described above for their ability to regulate insulin release an insulin HTRF® (Homogeneous Time-Resolved Fluorescence; Cisbio International, France) was used. This assay is based on two antibodies against insulin binding to different epitopes of insulin. One of these antibodies is coupled to Europium (Ab-Eu-Cryptate) and the other one to the fluorophore XL665 (Ab-XL665). Is insulin secreted into the supernatant of cell culture both antibodies can bind to insulin and come therefore into close proximity which allows upon excitation that energy transfer between (FRET) the long-life fluorescent donor Europium (cryptate) and the acceptors XL665. FRET increases proportionally with insulin concentration.
The automated assay protocol is as follows: • On day 1 15k beta-TC6 cells per well were seeded for 24 or 48 h in 50 µl complete medium. On day 2 or respective on day 3 the medium is removed and cells are washed with 60 µl 1xPBS and 20 µl induction buffer is added using BioTek washer. Subsequently, 10 µl Sunitininb (5 µM f.c.) or the test compound in induction buffer; 0.5% f.c. DMSO (CyBi-well) is transferred to the cells. The cells are then incubated at 37°C for 2, 3, 4h.
The HTRF assay is carried out using Greiner 384-well 784075 assay plates. First 10 µl supernatant is transferred from the cell plates in HTRF plates (CyBi-well). 10 µl of 0, 1, 2, and 4 ng/ml Insulin standard controls in assay medium is used as a control. To each well 10 µl of combined 1:25 Ab-XL665 (Acc) and 1:20 Ab-Eu-Cryptate (WellMate) are added and incubated for 120 min at RT in the dark. Finally HTRF is measured on ViewLux ultra high throughput microplate imager (PerkinElmer).
The evaluation software DataFactoty derives relative activities Ar according to the following equation: Ar = (V-R(0%control))/(R(100%control) -R(0%control)) × 100 [formula] […]
The activity of the compounds was classified according to their Ar (relative activity) into the following ranges: Ar ≥ 100% + + + +; 50% ≤ Ar < 100% + + +; 20% ≤ Ar < 50% + +; 10% < Ar < 20% + [formula] Table 10. Ar (relative activity) values of inventive compounds
On the technique in general: In TR-FRET formats the signal depends on donor and acceptor labels being close together.
Turning to `COc1ccc(-c2ccc3nnc(-c4ccccc4C)n3c2)cc1OC` [compound 223, 6-(3,4-dimethoxyphenyl)-3-(o-tolyl)-[1,2,4]triazolo[4,3-a]pyridine], the Emax fell in the range of 50 to 100%.
Next, `COc1cc(-c2cn3c(-c4ccccc4Cl)cnc3cn2)ccc1O` [compound 406, 4-[3-(2-chlorophenyl)imidazo[1,2-a]pyrazin-6-yl]-2-methoxy-phenol]: 20 to 50%; `Cn1cc(-c2cnc3cnc(-c4cc5ccccc5s4)cn23)cn1` [compound 439, 6-(benzothiophen-2-yl)-3-(1-methylpyrazol-4-yl)imidazo[1,2-a]pyrazine]: 20 to 50%; `COc1cc(C#Cc2ccc3nnc(-c4ccc(OCCCN(C)C)cc4)n3c2)cc(OC)c1` [compound 239, 3-[4-[6-[2-(3,5-dimethoxyphenyl)ethynyl]-[1,2,4]triazolo[4,3-a]pyridin-3-yl]phenoxy]-N,N-dimethyl-propan-1-amine]: 20 to 50%.
Next, `COc1ccc(-c2cnc3cnc(-c4ccc(N5CCN(C)CC5)cc4)cn23)cn1` [compound 381, 3-(6-methoxy-3-pyridyl)-6-[4-(4-methylpiperazin-1-yl)phenyl]imidazo[1,2-a]pyrazine]: 20 to 50%; `C(=C\c1cnc2cccnn12)/c1ccccc1` [compound 74, 3-[(E)-styryl]imidazo[1,2-b]pyridazine]: 20 to 50%; `Fc1cccc(-c2cn3c(-c4ccc5c(c4)OCO5)cnc3cn2)c1` [compound 304, 3-(1,3-benzodioxol-5-yl)-6-(3-fluorophenyl)imidazo[1,2-a]pyrazine]: 50 to 100%.
Under `CS(=O)(=O)Nc1cccc(-c2cn3c(-c4ccc(Oc5ccccc5)cc4)cnc3cn2)c1` [compound 403, N-[3-[3-(4-phenoxyphenyl)imidazo[1,2-a]pyrazin-6-yl]phenyl]methanesulfonamide] stands 20 to 50%; under `CN(C)CCCNC(=O)c1ccc(-c2cn3c(-c4ccc5c(ccn5C)c4)cnc3cn2)cc1` [compound 398, N-[3-(dimethylamino)propyl]-4-[3-(1-methylindol-5-yl)imidazo[1,2-a]pyrazin-6-yl]benzamide], 20 to 50%; under `O=C(Cc1ccsc1)Nc1cnc2cnc(-c3ccccc3F)cn12` [compound 278, N-[6-(2-fluorophenyl)imidazo[1,2-a]pyrazin-3-yl]-2-(3-thienyl)acetamide], 10 to 20%.
Compound `c1csc(-c2cn3c(-c4cccs4)cnc3cn2)c1` [compound 424, 3,6-bis(2-thienyl)imidazo[1,2-a]pyrazine] returned an Emax of 50 to 100%.
In turn, `c1coc(-c2cn3c(-c4ccsc4)cnc3cn2)c1` [compound 319, 6-(2-furyl)-3-(3-thienyl)imidazo[1,2-a]pyrazine] showed an Emax of 20 to 50%.
In turn, `COc1ccc(-c2cnc3ccc(NCC4CC4)nn23)cn1` [compound 51, N-(cyclopropylmethyl)-3-(6-methoxy-3-pyridyl)imidazo[1,2-b]pyridazin-6-amine] yielded an Emax of 10 to 20%.
For `c1csc(-c2cn3c(-c4ccncc4)cnc3cn2)c1` [compound 314, 3-(4-pyridyl)-6-(2-thienyl)imidazo[1,2-a]pyrazine], the Emax lay in the range of 20 to 50%.
Consider `CN(C)CCCOc1ccc(-c2cn3c(-c4ccc(N(C)C)cc4)cnc3cn2)cn1` [compound 281, 4-[6-[6-[3-(dimethylamino)propoxy]-3-pyridyl]imidazo[1,2-a]pyrazin-3-yl]-N,N-dimethyl-aniline], for which the Emax fell in the range of 50 to 100%.
Under `Cc1cccc(-c2cn3c(-c4ccc(CCC(=O)O)cc4)cnc3cn2)c1C` [compound 334, 3-[4-[6-(2,3-dimethylphenyl)imidazo[1,2-a]pyrazin-3-yl]phenyl]propanoic acid] stands 50 to 100%; under `CNC(=O)c1cccc(-c2ccc3nnc(-c4ccc5c(c4)OCO5)n3c2)c1` [compound 175, 3-[3-(1,3-benzodioxol-5-yl)-[1,2,4]triazolo[4,3-a]pyridin-6-yl]-N-methyl-benzamide], 20 to 50%; under `CS(=O)(=O)Nc1cccc(-c2ccc3nnc(-c4ccccc4)n3c2)c1` [compound 169, N-[3-(3-phenyl-[1,2,4]triazolo[4,3-a]pyridin-6-yl)phenyl]methanesulfonamide], 50 to 100%.
Next, `COc1cccc(C#Cc2ccc3nnc(-c4cccc(OC(F)(F)F)c4)n3c2)c1` [compound 194, 6-[2-(3-methoxyphenyl)ethynyl]-3-[3-(trifluoromethoxy)phenyl]-[1,2,4]triazolo[4,3-a]pyridine]: 20 to 50%.
Under `O=C(O)CCc1ccc(-c2cnc3cnc(-c4ccccc4Cl)cn23)cc1` [compound 331, 3-[4-[6-(2-chlorophenyl)imidazo[1,2-a]pyrazin-3-yl]phenyl]propanoic acid] stands 50 to 100%; under `C(=C\c1cn2c(-c3cccs3)cnc2cn1)/c1ccccc1` [compound 419, 6-[(E)-styryl]-3-(2-thienyl)imidazo[1,2-a]pyrazine], 20 to 50%.
Take `CC(=O)c1cccc(-c2cnc3cnc(-c4ccc(C(=O)NCCN(C)C)cc4)cn23)c1` [compound 411, 4-[3-(3-acetylphenyl)imidazo[1,2-a]pyrazin-6-yl]-N-(2-dimethylaminoethyl)benzamide]: the Emax is 20 to 50%.
Regarding `c1cncc(-c2cnc3ccc(-c4ccoc4)nn23)c1` [compound 107, 6-(3-furyl)-3-(3-pyridyl)imidazo[1,2-b]pyridazine], the maximal effect (Emax) fell in the range of 20 to 50%.
The compound `COc1ccccc1-c1cn2c(NC(=O)c3ccccc3)cnc2cn1` [compound 267, N-[6-(2-methoxyphenyl)imidazo[1,2-a]pyrazin-3-yl]benzamide] had an Emax of 20 to 50%.
Under `CS(=O)(=O)Nc1ccc(-c2cnc3cccnn23)cc1` [compound 96, N-(4-imidazo[1,2-b]pyridazin-3-ylphenyl)methanesulfonamide] stands 10 to 20%; under `COc1ccc(-c2ccc3ncc(-c4cccc(Cl)c4)n3n2)c(C)c1` [compound 125, 3-(3-chlorophenyl)-6-(4-methoxy-2-methyl-phenyl)imidazo[1,2-b]pyridazine], 10 to 20%.
Under `O=C(NCCO)c1cccc(-c2cn3c(-c4cccs4)cnc3cn2)c1` [compound 420, N-(2-hydroxyethyl)-3-[3-(2-thienyl)imidazo[1,2-a]pyrazin-6-yl]benzamide] stands 20 to 50%.
Take `Nc1cccc(-c2cn3c(-c4cccc(F)c4)cnc3cn2)c1` [compound 384, 3-[3-(3-fluorophenyl)imidazo[1,2-a]pyrazin-6-yl]aniline]: the Emax was 20 to 50%.
Next, `CN(C)/C(=C1\N=C(c2ccccc2)OC1=O)c1cnc2cccnn12` [compound 162, (4Z)-4-[dimethylamino(imidazo[1,2-b]pyridazin-3-yl)methylene]-2-phenyl-oxazol-5-one]: 10 to 20%; `CN(C)c1ccc(-c2cnc3cnc(-c4ccc(C(=O)NCCO)cc4)cn23)cc1` [compound 290, 4-[3-(4-dimethylaminophenyl)imidazo[1,2-a]pyrazin-6-yl]-N-(2-hydroxyethyl)benzamide]: 50 to 100%.
Under `COc1cccc(CC(=O)Nc2cnc3cnc(-c4cnn(C)c4)cn23)c1` [compound 261, 2-(3-methoxyphenyl)-N-[6-(1-methylpyrazol-4-yl)imidazo[1,2-a]pyrazin-3-yl]acetamide] stands 10 to 20%; under `CC(C)Oc1cccc(-c2cn3c(-c4ccc5c(c4)OCO5)cnc3cn2)c1` [compound 310, 3-(1,3-benzodioxol-5-yl)-6-(3-isopropoxyphenyl)imidazo[1,2-a]pyrazine], 50 to 100%.
With `COc1ccc(-c2ccc3nnc(-c4ccoc4)n3c2)cc1` [compound 220, 3-(3-furyl)-6-(4-methoxyphenyl)-[1,2,4]triazolo[4,3-a]pyridine], the Emax lay in the range of 50 to 100%.
Under `c1ccc(Cn2cc(-c3cn4c(-c5ccc6c(c5)OCO6)cnc4cn3)cn2)cc1` [compound 307, 3-(1,3-benzodioxol-5-yl)-6-(1-benzylpyrazol-4-yl)imidazo[1,2-a]pyrazine] stands 50 to 100%.
Next, `COc1cc(-c2cn3c(-c4ccc5ncccc5c4)cnc3cn2)ccc1O` [compound 441, 2-methoxy-4-[3-(6-quinolyl)imidazo[1,2-a]pyrazin-6-yl]phenol]: 20 to 50%; `O=C(NC1CC1)c1ccc(-c2cnc3cccnn23)cc1` [compound 89, N-cyclopropyl-4-imidazo[1,2-b]pyridazin-3-yl-benzamide]: 10 to 20%; `Oc1ccc(-c2cn3c(-c4cccs4)cnc3cn2)cc1` [compound 417, 4-[3-(2-thienyl)imidazo[1,2-a]pyrazin-6-yl]phenol]: 50 to 100%.

As a reminder, the Emax is the greatest response seen or fitted, relative to the assay's reference.
